Measured values published in patent US20140228286A1, “SPECIFIC PDE4B-INHIBITORS FOR THE TREATMENT OF DIABETES MELLITUS” (BOEHRINGER INGELHEIM INTERNATIONAL GMBH, priority 2013, published 2014).

biological target: T1, PDE4B (Homo sapiens, UniProt Q07343); assay: PDE4B Scintillation Proximity (SPA) Assay; format: biochemical; settings: PDE4B active site fragment amino acids 152-484; [3H]cAMP; 30° C., one hour; read-out: Experimentally determined IC50-value for PDE4B inhibition
T1 construct: active site fragment comprising the amino acids 152-484
Excerpt: The IC50-values of the compounds of the invention (Examples 1.1 to 1.47) with respect to their PDE4B-inhibiting ability have been determined with a Scintillation Proximity (SPA) Assay (GE Healthcare, No. TRKQ7090). The Scintillation Proximity (SPA) Assay is based on the detection of the different affinities of the cyclic 3′-5′adenosine monophosphate (cAMP, low affinity) and the linear 5′-adenosine monophosphate (AMP, high affinity) to yttrium-silicate-scintillator beads. The cAMP-specific phosphodiesterase (PDE) PDE4B cleaves the 3′-phosphodiester bond of the tritium-labelled-[^3H]cAMP to the [^3H]5′-AMP. This [^3H]5′-AMP associates with the scintillator beads because of their higher affinity and causes scintillations (light flashes) which can be measured in a Wallac Microbeta Scintillation Counter.
10 μl of a [^3H]cAMP-solution (0.05 μCi in H2O, 10-30 Ci/mmol) are added to 89 μl of a PDE4B-enzyme-solution (active site fragment comprising the amino acids 152-484; 0.15-0.18 ng) in assay buffer (50 mM Tris HCl pH 7.5; 8.3 mM MgCl2; 1,7 mM ethylene glyclol tetraacetic acid (EGTA); 0.25 mg/ml bovine serum albumin (BSA)) and this mixture is incubated at 30° C. for one hour
a) without the compound to be tested (in the presence of 1 μl dimethylsulfoxide (DMSO), corresponding to 1% DMSO) and b) in the presence of the compound to be tested in a concentration of 125 μM, 25 μM, 5 μM, 1 μM, 200 nM, 40 nM, 8 nM, 1.6 nM, 0.32 nM, 0.064 nM, 0.0128 nM (dilution series in 5er-steps beginning from 125 μM until 0.0128 nM, in the presence of 1% DMSO).
After this incubation the reaction is stopped by the addition of 50 μl of bead-solution (500 mg beads/35 ml H2O, 18 mM zinc sulfate). In the following 45 minutes the beads have the opportunity to form a sediment. After that the scintillations are measured in the scintillation counter. If the tested compound is able to inhibit the enzymatic activity of the PDE4B-enzyme, less [^3H]AMP depending on the concentration of the tested compound is produced and less scintillations are measurable. […] The IC50-value stands for the compound concentration at which the PDE4B enzyme activity is inhibited to a half maximal value. Therefore the lower the IC50-value is the better is the PDE4B inhibition.

T1 sequence (Q07343 324-656): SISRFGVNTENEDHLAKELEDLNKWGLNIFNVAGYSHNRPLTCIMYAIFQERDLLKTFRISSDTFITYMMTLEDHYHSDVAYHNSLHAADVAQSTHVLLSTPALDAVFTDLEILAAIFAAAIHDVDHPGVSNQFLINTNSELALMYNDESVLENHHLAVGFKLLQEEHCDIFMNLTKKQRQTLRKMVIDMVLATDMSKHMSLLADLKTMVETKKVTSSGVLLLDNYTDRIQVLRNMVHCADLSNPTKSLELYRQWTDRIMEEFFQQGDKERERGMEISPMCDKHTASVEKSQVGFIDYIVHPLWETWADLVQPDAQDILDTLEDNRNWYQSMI

Point of comparison: `[O-][S+]1CCc2nc(N3CCC(c4ccc(Cl)cc4)CC3)nc(NC3CCOCC3)c21` (stereo not shown) [Example 1.6, {2-[4-(4-chlorophenyl)-piperidin-1-yl]-5-oxo-6,7-dihydro-5H-5λ^4-thieno[3,2-d]pyrimidin-4-yl}-(tetrahydropyran-4-yl)-amine], IC50 4.7 nM. Against it:
- CC(C)(O)[C@H](Nc1nc(N2CCC(c3ccc(Cl)cc3)CC2)nc2c1[S+]([O-])CC2)c1ccc(F)cc1 (stereo partly drawn) [Example 1.4, (R)-1-{2-[4-(4-chlorophenyl)-piperidin-1-yl]-5-oxo-6,7-dihydro-5H-5λ^4-thieno[3,2-d]pyrimidin-4-ylamino}-1-(4-fluorophenyl)-2-methylpropan-2-ol] — 3.3-fold higher, 15.3 nM
- CN1C[C@@H](Nc2nc(N3CCC(C#N)(c4ccccc4)CC3)nc3c2[S+]([O-])CC3)CCC1=O (stereo partly drawn) [Example 1.10, 1-[4-((S)-1-methyl-6-oxopiperidin-3-ylamino)-5-oxo-6,7-dihydro-5H-5λ^4-thieno[3,2-d]pyrimidin-2-yl]-4-phenylpiperidin-4-carbonitrile] — within 1.5-fold, 3.5 nM
- Cc1oc(C2CCN(c3nc4c(c(NC5(CO)CC5)n3)[S+]([O-])CC4)CC2)nc1-c1ccccc1 (stereo not shown) [Example 1.37, (1-{2-[4-(5-methyl-4-phenyloxazol-2-yl)-piperidin-1-yl]-5-oxo-6,7-dihydro-5H-5λ^4-thieno[3,2-d]pyrimidin-4-ylamino}-cyclopropyl)-methanol] — within 1.5-fold, 3.5 nM
- CN1C[C@@H](Nc2nc(N3CCC(Oc4ccc(F)cc4)CC3)nc3c2[S+]([O-])CC3)CCC1=O (stereo partly drawn) [Example 1.22, (S)-5-{2-[4-(4-fluorophenoxy)-piperidin-1-yl]-5-oxo-6,7-dihydro-5H-5λ4-thieno[3,2-d]pyrimidin-4-ylamino}-1-methylpiperidin-2-one] — 2-fold lower, 2.3 nM
- CC(C)[C@H](CO)Nc1nc(N2CCC(c3ccc(Cl)cc3)CC2)nc2c1[S+]([O-])CC2 (stereo partly drawn) [Example 1.1, (R)-2-{2-[4-(4-chlorophenyl)-piperidin-1-yl]-5-oxo-6,7-dihydro-5H-5λ^4-thieno[3,2-d]pyrimidin-4-ylamino}-3-methylbutan-1-ol] — 5.1-fold higher, 24.2 nM
- [O-][S+]1CCc2nc(N3CCC(c4noc5cc(F)ccc45)CC3)nc(NC3(CO)CC3)c21 (stereo not shown) [Example 1.17, (1-{2-[4-(6-fluorobenzo[d]isoxazol-3-yl)-piperidin-1-yl]-5-oxo-6,7-dihydro-5H-5λ^4-thieno[3,2-d]pyrimidin-4-ylamino}-cyclopropyl)-methanol] — 1.7-fold lower, 2.73 nM
- Cc1nc(C2CCN(c3nc4c(c(NC5(CO)CC5)n3)[S+]([O-])CC4)CC2)oc1-c1ccc(Cl)cc1 (stereo not shown) [Example 1.40, [1-(2-{4-[5-(4-chlorophenyl)-4-methyloxazol-2-yl]-piperidin-1-yl}-5-oxo-6,7-dihydro-5H-5λ^4-thieno[3,2-d]pyrimidin-4-ylamino)-cyclopropyl]-methanol] — 7.8-fold lower, 0.6 nM
- CCC[C@H](CO)Nc1nc(N2CCC(c3ccc(Cl)cc3)CC2)nc2c1[S+]([O-])CC2 (stereo partly drawn) [Example 1.3, (R)-2-{2-[4-(4-chlorophenyl)-piperidin-1-yl]-5-oxo-6,7-dihydro-5H-5λ^4-thieno[3,2-d]pyrimidin-4-ylamino}-pentan-1-ol] — 1.8-fold higher, 8.3 nM
- Cn1cc(C2CCN(c3nc4c(c(NC5CCOCC5)n3)[S+]([O-])CC4)CC2)c2cc(C(C)(C)C)ccc21 (stereo not shown) [Example 1.26, {2-[4-(5-tert-butyl-1-methyl-1H-indol-3-yl)-piperidin-1-yl]-5-oxo-6,7-dihydro-5H-5λ^4-thieno[3,2-d]pyrimidin-4-yl}-(tetrahydropyran-4-yl)-amine] — 8.1-fold higher, 38 nM
- CN1C[C@@H](Nc2nc(N3CCC(c4nc5ccccc5o4)CC3)nc3c2[S+]([O-])CC3)CCC1=O (stereo partly drawn) [Example 1.16, (S)-5-[2-(4-benzoxazol-2-yl-piperidin-1-yl)-5-oxo-6,7-dihydro-5H-5λ^4-thieno[3,2-d]pyrimidin-4-ylamino]-1-methylpiperidin-2-one] — 47-fold lower, 0.1 nM
- COCC(=O)NCC1(c2ccccc2)CCN(c2nc3c(c(NC4CCOCC4)n2)[S+]([O-])CC3)CC1 (stereo not shown) [Example 1.31, 2-methoxy-N-{1-[5-oxo-4-(tetrahydropyran-4-ylamino)-6,7-dihydro-5H-5λ^4-thieno[3,2-d]pyrimidin-2-yl]-4-phenylpiperidin-4-ylmethyl}-acetamide] — within 1.5-fold, 5.7 nM
- [O-][S+]1CCc2nc(N3CCC(Oc4ccncc4)CC3)nc(NC3CCOCC3)c21 (stereo not shown) [Example 1.34, {5-oxo-2-[4-(pyridin-4-yloxy)-piperidin-1-yl]-6,7-dihydro-5H-5λ^4-thieno[3,2-d]pyrimidin-4-yl}-(tetrahydropyran-4-yl)-amine] — 1.7-fold higher, 8 nM
- [O-][S+]1CCc2nc(N3CCC(c4cc(-c5ccco5)n[nH]4)CC3)nc(NC3CCOCC3)c21 (stereo not shown) [Example 1.19, {2-[4-(5-furan-2-yl-2H-pyrazol-3-yl)-piperidin-1-yl]-5-oxo-6,7-dihydro-5H-5λ^4-thieno[3,2-d]pyrimidin-4-yl}-(tetrahydropyran-4-yl)-amine] — within 1.5-fold, 3.46 nM
- CN1C[C@@H](Nc2nc(N3CCC(Oc4ccc(C5=NCCO5)cc4)CC3)nc3c2[S+]([O-])CC3)CCC1=O (stereo partly drawn) [Example 1.28, (S)-5-(2-{4-[4-(4,5-dihydrooxazol-2-yl)-phenoxy]-piperidin-1-yl}-5-oxo-6,7-dihydro-5H-5λ^4-thieno[3,2-d]pyrimidin-4-ylamino)-1-methylpiperidin-2-one] — 25-fold lower, 0.19 nM
- CCc1[nH]c2ccc(F)cc2c1C1CCN(c2nc3c(c(NC4(CO)CC4)n2)[S+]([O-])CC3)CC1 (stereo not shown) [Example 1.9, (1-{2-[4-(2-ethyl-5-fluoro-1H-indol-3-yl)-piperidin-1-yl]-5-oxo-6,7-dihydro-5H-5λ^4-thieno[3,2-d]pyrimidin-4-ylamino}-cyclopropyl)-methanol] — 11-fold higher, 53.8 nM
- CN1C[C@@H](Nc2nc(N3CCC(c4ccc(Cl)cc4)CC3)nc3c2S(=O)(=O)CC3)CCC1=O [Example 1.45, (S)-5-{2-[4-(4-chlorophenyl)-piperidin-1-yl]-5,5-dioxo-6,7-dihydro-5H-5λ^6-thieno[3,2-d]pyrimidin-4-ylamino}-1-methylpiperidin-2-one] — 11-fold higher, 54 nM
- [O-][S+]1CCc2nc(N3CCC(c4nc5c(o4)CCCC5)CC3)nc(NC3CCOCC3)c21 (stereo not shown) [Example 1.44] — 1.7-fold lower, 2.7 nM
- CC(C)(O)C1(Nc2nc(N3CCC(c4ccc(Cl)cc4)CC3)nc3c2[S+]([O-])CC3)CC1 (stereo not shown) [Example 1.25, 2-(1-{2-[4-(4-chlorophenyl)-piperidin-1-yl]-5-oxo-6,7-dihydro-5H-5λ^4-thieno[3,2-d]pyrimidin-4-ylamino}-cyclopropyl)-propan-2-ol] — 2.6-fold lower, 1.8 nM
- CN1C[C@@H](Nc2nc(N3CCC(c4ccc(Cl)cc4)CC3)nc3c2[S+]([O-])CC3)CCC1=O (stereo partly drawn) [Example 1.5, (S)-5-{2-[4-(4-chlorophenyl)-piperidin-1-yl]-5-oxo-6,7-dihydro-5H-5λ^4-thieno[3,2-d]pyrimidin-4-ylamino}-1-methylpiperidin-2-one] — 7.8-fold lower, 0.6 nM

tested on: Sprague Dawley (SD) rats; assay: Oral glucose tolerance test in overnight fasted male Sprague Dawley rats; format: in vivo, rat; settings: single oral dose 1 mg/kg, 60 min before oral glucose load 2 g/kg; versus vehicle control
Method: An oral glucose tolerance test is performed in overnight fasted male Sprague Dawley (SD) rats (RjHan:SD), with a weight of 320-350 g. A pre-dose blood sample is obtained by tail bleed. Blood glucose is measured with a glucometer, and the animals are randomized for blood glucose (n=6/group). Subsequently, the groups receive a single oral administration of either vehicle alone (0.5% aqueous hydroxyethyl-cellulose) or vehicle containing one of the PDE4 inhibitors. The animals receive an oral glucose load (2 g/kg) 60 min after compound administration. Blood glucose is measured in tail blood 15 min, 30 min, 60 min, 90 min, and 120 min after the glucose challenge. Glucose excursion is quantified by calculating the reactive glucose AUC (area under the curve). The data are presented as mean±SEM (standard error of mean). The two-sided unpaired Student t-test is used for statistical comparison of the control group and the active groups.
“Cpd. A” is the PDE4 inhibitor Example 1.35 at a dose of 1 and 3 mg/kg. “Cpd. B” is the PDE4 inhibitor Example 1.46 at a dose of 1 and 3 mg/kg. P values versus control are indicated by symbols above the bars (*, p<0.05). Cpd. A (=Example 1.35) reduces glucose excursion by 13.2 (p=0.09) and 15.0% (p=0.11) with a dose of 1 and 3 mg/kg, respectively. Cpd. […] Cpd.

With `[O-][S+]1CCc2nc(N3CCC(c4ncc(Cl)cn4)CC3)nc(NC3(CO)CCC3)c21` (stereo not shown) [Example 1.46, (1-{2-[4-(5-Chloro-pyrimidin-2-yl)-piperidin-1-yl]-5-oxo-6,7-dihydro-5H-5λ^4-thieno[3,2-d]pyrimidin-4-yl-amino}-cyclobutyl)-methanol] the “reduces glucose excursion (reactive glucose AUC)” value was 26.8%.

same assay, conditions: single oral dose 3 mg/kg, 60 min before oral glucose load 2 g/kg; versus vehicle control

`[O-][S+]1CCc2nc(N3CCC(c4ncc(Cl)cn4)CC3)nc(NC3(CO)CCC3)c21` (stereo not shown) [Example 1.46, (1-{2-[4-(5-Chloro-pyrimidin-2-yl)-piperidin-1-yl]-5-oxo-6,7-dihydro-5H-5λ^4-thieno[3,2-d]pyrimidin-4-yl-amino}-cyclobutyl)-methanol] was tested, and the “reduces glucose excursion (reactive glucose AUC)” value was 18.4%.
